# Reference: ChEMBL document CHEMBL3045961, “Synthesis and evaluation of some pyrimidine analogs against toxoplasmosis” (Med Chem Res, 2008)
# Activity calls are given as the source filed them. The calls are words filed in the database; no cut-off is given here.
# Tests used:
# Toxoplasma gondii [1] = test: Antiparasitic activity Toxoplasma gondii RH infected Swiss albino mouse assessed as decrease in host spleen necrosis at 0.25 mg, po administered 48 hr post-infection measured after 3 days by haematoxylin and eosin staining relative to control; format: functional, organism-based
# Toxoplasma gondii [2] = test: Antiparasitic activity against Toxoplasma gondii RH infected Swiss albino mouse assessed as decrease in tachozyte count in spleen at 0.25 mg, po administered 48 hr post-infection measured after 3 days by Geimsa staining relative to control; format: functional, organism-based
# Toxoplasma gondii [3] = test: Antiparasitic activity Toxoplasma gondii RH infected Swiss albino mouse assessed as disorganised parasite conoid in host peritoneal exudate at 0.25 mg, po administered 48 hr post-infection measured after 3 days by scanning electron microscopic analysis; format: functional, organism-based
# Toxoplasma gondii [4] = test: Antiparasitic activity Toxoplasma gondii RH infected Swiss albino mouse assessed as loss of parasite crescent shape in host peritoneal exudate at 0.25 mg, po administered 48 hr post-infection measured after 3 days by scanning electron microscopic analysis; format: functional, organism-based
# [5] = target: T1, Bifunctional dihydrofolate reductase-thymidylate synthase (Cryptosporidium parvum, UniProt Q27552); test: Inhibition of Cryptosporidium parvum recombinant DHFR using dihydrofolate as substrate incubated for 5 min prior to substrate addition by spectrophotometric assay
# T1 sequence (Q27552 whole entry): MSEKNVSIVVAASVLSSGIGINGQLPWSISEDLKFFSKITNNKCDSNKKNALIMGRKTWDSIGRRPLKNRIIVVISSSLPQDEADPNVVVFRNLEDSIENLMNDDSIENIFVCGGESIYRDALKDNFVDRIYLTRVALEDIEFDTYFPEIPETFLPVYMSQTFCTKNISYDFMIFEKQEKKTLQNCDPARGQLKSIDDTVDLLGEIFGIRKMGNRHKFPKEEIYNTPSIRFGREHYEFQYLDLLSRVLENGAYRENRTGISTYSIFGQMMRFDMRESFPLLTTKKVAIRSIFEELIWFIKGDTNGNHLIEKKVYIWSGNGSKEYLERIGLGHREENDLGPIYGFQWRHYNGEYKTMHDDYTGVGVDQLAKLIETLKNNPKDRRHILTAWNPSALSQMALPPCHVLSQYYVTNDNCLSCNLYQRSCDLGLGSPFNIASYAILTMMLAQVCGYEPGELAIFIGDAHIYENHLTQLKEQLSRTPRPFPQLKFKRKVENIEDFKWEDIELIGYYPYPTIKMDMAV
# Toxoplasma gondii [6] = test: Antiparasitic activity Toxoplasma gondii RH infected Swiss albino mouse assessed as decrease in host spleen white pulp at 0.25 mg, po administered 48 hr post-infection measured after 3 days by haematoxylin and eosin staining relative to control; format: functional, organism-based
# Toxoplasma gondii [7] = test: Antiparasitic activity Toxoplasma gondii RH infected Swiss albino mouse assessed as parasite dimpled conoid in host peritoneal exudate at 0.25 mg, po administered 48 hr post-infection measured after 3 days by scanning electron microscopic analysis; format: functional, organism-based
# Toxoplasma gondii [8] = test: Antiparasitic activity Toxoplasma gondii RH infected Swiss albino mouse assessed as clear mononuclear cells in host liver focal granuloma at 0.25 mg, po administered 48 hr post-infection measured after 3 days by haematoxylin and eosin staining relative to control; format: functional, organism-based
# Toxoplasma gondii [9] = test: Antiparasitic activity Toxoplasma gondii RH infected Swiss albino mouse assessed as decrease in Toxoplasma antigen in host serum at 0.25 mg, po administered 48 hr post-infection measured after 3 days by Co-A test relative to control; format: functional, organism-based
# Toxoplasma gondii [10] = test: Antiparasitic activity Toxoplasma gondii RH infected Swiss albino mouse assessed as increase in host spleen red pulp at 0.25 mg, po administered 48 hr post-infection measured after 3 days by haematoxylin and eosin staining relative to control; format: functional, organism-based
# Toxoplasma gondii [11] = test: Antiparasitic activity Toxoplasma gondii RH infected Swiss albino mouse assessed as parasite deformity in host peritoneal exudate at 0.25 mg, po administered 48 hr post-infection measured after 3 days by light microscopic analysis; format: functional, organism-based
# Dihydrofolate reductase = target: T2, Dihydrofolate reductase (Homo sapiens, UniProt P00374); test: Inhibition of Homo sapiens (human) dihydrofolate reductase using dihydrofolate as substrate incubated for 5 min prior to substrate addition by spectrophotometric assay
# T2 sequence (P00374 whole entry): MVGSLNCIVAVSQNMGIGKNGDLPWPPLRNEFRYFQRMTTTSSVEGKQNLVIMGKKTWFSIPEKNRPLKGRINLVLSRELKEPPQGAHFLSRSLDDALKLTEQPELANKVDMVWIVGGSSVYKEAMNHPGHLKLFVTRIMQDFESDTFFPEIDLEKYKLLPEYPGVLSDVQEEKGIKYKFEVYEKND
# [12] = target: T3, Bifunctional dihydrofolate reductase-thymidylate synthase (Cryptosporidium parvum) (UniProt Q27552); test: Ratio of trimethorpin IC50 to compound IC50 for Cryptosporidium parvum recombinant DHFR
# T3 sequence (whole entry): T1 sequence (Q27552 whole entry)
# Toxoplasma gondii [13] = test: Antiparasitic activity Toxoplasma gondii RH infected Swiss albino mouse assessed as extramedullary hematopoiesis in host spleen at 0.25 mg, po administered 48 hr post-infection measured after 3 days by haematoxylin and eosin staining relative to control; format: functional, organism-based
# Toxoplasma gondii [14] = test: Antiparasitic activity Toxoplasma gondii RH infected Swiss albino mouse assessed as clear lymphocytes in host liver focal granuloma at 0.25 mg, po administered 48 hr post-infection measured after 3 days by haematoxylin and eosin staining relative to control; format: functional, organism-based
# Toxoplasma gondii [15] = test: Antiparasitic activity Toxoplasma gondii RH infected Swiss albino mouse assessed as epethelioid granuloma in host spleen at 0.25 mg, po administered 48 hr post-infection measured after 3 days by haematoxylin and eosin staining relative to control; format: functional, organism-based
# Toxoplasma gondii [16] = test: Antiparasitic activity Toxoplasma gondii RH infected Swiss albino mouse assessed as megakaryocytes in host spleen at 0.25 mg, po administered 48 hr post-infection measured after 3 days by haematoxylin and eosin staining relative to control; format: functional, organism-based
# Toxoplasma gondii [17] = test: Antiparasitic activity Toxoplasma gondii RH infected Swiss albino mouse assessed as decreased parasite movement in host peritoneal exudate at 0.25 mg, po administered 48 hr post-infection measured after 3 days by light microscopic analysis; format: functional, organism-based
# Toxoplasma gondii [18] = test: Antiparasitic activity Toxoplasma gondii RH infected Swiss albino mouse assessed as decrease in host liver necrosis at 0.25 mg, po administered 48 hr post-infection measured after 3 days by haematoxylin and eosin staining relative to control; format: functional, organism-based
# Toxoplasma gondii [19] = test: Antiparasitic activity against Toxoplasma gondii RH infected Swiss albino mouse assessed as decrease in tachozyte count in liver at 0.25 mg, po administered 48 hr post-infection measured after 3 days by Geimsa staining relative to control; format: functional, organism-based
# Toxoplasma gondii [20] = test: Antiparasitic activity Toxoplasma gondii RH infected Swiss albino mouse assessed as decrease in interstitial pneumonia at 0.25 mg, po administered 48 hr post-infection measured after 3 days by haematoxylin and eosin staining relative to control; format: functional, organism-based
# Toxoplasma gondii [21] = test: Antiparasitic activity Toxoplasma gondii RH infected Swiss albino mouse assessed as decrease in host lung congestion at 0.25 mg, po administered 48 hr post-infection measured after 3 days by haematoxylin and eosin staining relative to control; format: functional, organism-based
# Toxoplasma gondii [22] = test: Antiparasitic activity Toxoplasma gondii RH infected Swiss albino mouse assessed as decrease in tachyzoites end tapering in host peritoneal exudate at 0.25 mg, po administered 48 hr post-infection measured after 3 days by scanning electron microscopic analysis; format: functional, organism-based
# Toxoplasma gondii [23] = test: Antiparasitic activity Toxoplasma gondii RH infected Swiss albino mouse assessed as elongated tachyzoites in host peritoneal exudate at 0.25 mg, po administered 48 hr post-infection measured after 3 days by scanning electron microscopic analysis; format: functional, organism-based
# Toxoplasma gondii [24] = test: Antiparasitic activity Toxoplasma gondii RH infected Swiss albino mouse assessed as multiple deep ridged parasite surface in host peritoneal exudate at 0.25 mg, po administered 48 hr post-infection measured after 3 days by scanning electron microscopic analysis; format: functional, organism-based
# Toxoplasma gondii [25] = test: Antiparasitic activity Toxoplasma gondii RH infected Swiss albino mouse assessed as deep ridged parasite surface in host peritoneal exudate at 0.25 mg, po administered 48 hr post-infection measured after 3 days by scanning electron microscopic analysis; format: functional, organism-based
# Toxoplasma gondii [26] = test: Antiparasitic activity Toxoplasma gondii RH infected Swiss albino mouse assessed as smooth tachyzoites in host peritoneal exudate at 0.25 mg, po administered 48 hr post-infection measured after 3 days by scanning electron microscopic analysis; format: functional, organism-based
# Toxoplasma gondii [27] = test: Antiparasitic activity Toxoplasma gondii RH infected Swiss albino mouse assessed as homogenous tachyzoites in host peritoneal exudate at 0.25 mg, po administered 48 hr post-infection measured after 3 days by scanning electron microscopic analysis; format: functional, organism-based
# Toxoplasma gondii [28] = test: Antiparasitic activity Toxoplasma gondii RH infected Swiss albino mouse assessed as dimpled parasite surface in host peritoneal exudate at 0.25 mg, po administered 48 hr post-infection measured after 3 days by scanning electron microscopic analysis; format: functional, organism-based
SMILES,Activity (Toxoplasma gondii [1]),Activity (Toxoplasma gondii [2]),Activity (Toxoplasma gondii [3]),IC50 [5] [nM],Activity (Toxoplasma gondii [6]),Activity (Toxoplasma gondii [8]),Activity (Toxoplasma gondii [9]),Activity (Toxoplasma gondii [10]),Activity (Toxoplasma gondii [11]),IC50 (Dihydrofolate reductase) [nM],Ratio IC50 [12],Activity (Toxoplasma gondii [13]),Activity (Toxoplasma gondii [14]),Activity (Toxoplasma gondii [15]),Activity (Toxoplasma gondii [16]),Activity (Toxoplasma gondii [17]),Activity (Toxoplasma gondii [18]),Activity (Toxoplasma gondii [19]),Activity (Toxoplasma gondii [20]),Activity (Toxoplasma gondii [21]),further results
CCOC(=O)C1=C(C)N=C(SCCC(=O)O)NC1c1ccccc1OC (stereo unspecified),Active,Active,Active,75,Active,Active,Active,Active,Active,8.9,40,inactive,Active,inactive,inactive,Active,Active,Active,Active,inactive,Activity (Toxoplasma gondii [4]): Active; Activity (Toxoplasma gondii [7]): Active
CC(=O)C1=C(C)N=C(SCCC(=O)O)NC1c1ccccc1 (stereo unspecified),Active,Active,Active,27,Active,Active,Active,Active,Active,1.3,40,inactive,Active,Active,inactive,Active,Active,Active,Active,inactive,Activity (Toxoplasma gondii [4]): Active; Activity (Toxoplasma gondii [22]): Active; Activity (Toxoplasma gondii [23]): Active
CCOC(=O)C1=C(C)NC(S/C(=C\c2ccc(OC)cc2)C(=O)OCC)=NC1c1ccccc1 (stereo unspecified),Active,Active,,38,Active,Active,Active,Active,Active,10,40,Active,Active,inactive,Active,Active,Active,Active,Active,inactive,Activity (Toxoplasma gondii [24]): Active
CC(=O)C1=C(C)N=C(SCCC(=O)O)NC1c1cccc(O)c1 (stereo unspecified),Active,Active,,65,Active,Active,Active,Active,Active,94,40,inactive,Active,inactive,inactive,Active,Active,Active,Active,inactive,Activity (Toxoplasma gondii [25]): Active; Activity (Toxoplasma gondii [26]): Active; Activity (Toxoplasma gondii [27]): Active; Activity (Toxoplasma gondii [28]): Active
CC(=O)C1=C(C)NC(=S)NC1c1cccc(O)c1 (stereo unspecified),inactive,inactive,,7600,inactive,inactive,inactive,inactive,inactive,9400,,inactive,inactive,inactive,inactive,inactive,inactive,inactive,inactive,inactive,
